Measurements reported in patent US20120172392A1, “AMINE-BASED AND AMIDE-BASED INHIBITORS OF SEMICARBAZIDE-SENSITIVE AMINE OXIDASE (SSAO) ENZYME ACTIVITY AND VAP-1 MEDIATED ADHESION USEFUL FOR TREATMENT OF DISEASES” (priority 2004, published 2012).
Structures can show the parent of a compound that is named as a salt. One block for each compound: values may come before it.

How the values were obtained:
SSAO [1] = target: T1, SSAO (Rattus norvegicus, UniProt O08590); assay: In vitro inhibition of SSAO activity, radiolabeled benzylamine procedure (rat lung homogenate); assay type: biochemical
T1 construct: SSAO activity in 100 ul of lung homogenate was determined radiochemically; from tissue; host or cells: rat lung homogenate (1000 g supernatant)
T1 sequence (O08590 1-763): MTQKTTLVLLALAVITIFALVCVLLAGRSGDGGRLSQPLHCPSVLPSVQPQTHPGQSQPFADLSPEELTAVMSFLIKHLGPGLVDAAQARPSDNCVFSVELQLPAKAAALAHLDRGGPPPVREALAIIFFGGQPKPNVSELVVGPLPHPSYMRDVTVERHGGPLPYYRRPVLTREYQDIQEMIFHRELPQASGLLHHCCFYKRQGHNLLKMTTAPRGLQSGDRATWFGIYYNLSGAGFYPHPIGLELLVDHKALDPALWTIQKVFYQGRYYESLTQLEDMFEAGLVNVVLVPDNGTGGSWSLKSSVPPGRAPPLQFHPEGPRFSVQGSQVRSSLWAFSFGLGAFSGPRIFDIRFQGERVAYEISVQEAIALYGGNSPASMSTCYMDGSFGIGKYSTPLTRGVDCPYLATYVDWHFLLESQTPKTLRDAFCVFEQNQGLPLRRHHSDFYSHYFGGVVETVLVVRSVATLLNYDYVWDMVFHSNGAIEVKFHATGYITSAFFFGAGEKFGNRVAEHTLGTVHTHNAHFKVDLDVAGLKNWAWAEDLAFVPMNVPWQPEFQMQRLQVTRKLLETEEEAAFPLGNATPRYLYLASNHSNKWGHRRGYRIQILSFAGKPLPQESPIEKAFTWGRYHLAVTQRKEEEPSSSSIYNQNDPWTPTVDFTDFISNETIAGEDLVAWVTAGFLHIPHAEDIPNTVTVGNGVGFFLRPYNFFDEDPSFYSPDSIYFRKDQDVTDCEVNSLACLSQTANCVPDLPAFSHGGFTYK

C57BL/6 mice = assay: Experimental autoimmune encephalomyelitis (EAE) in mice; assay type: in vivo; conditions: for EAE development after stopping treatment: after last treatment (d19-25)
Method: Thirty female C57BL/6 mice were immunized subcutaneously (s,c) with myelin oligodendrocyte glycoprotein 35-55 (MOG peptide 35-55) in Complete Freund Adjuvant (CFA) on day 0, followed by i.p. injections of pertussis toxin (one pertussis toxin injection on day 0, a second pertussis toxin injection on day 2). Groups of 10 mice received either the allylamine Compound mofegiline (M1, 10 mg/kg/dose, twice daily for 18 consecutive days), methotrexate (MTX, 2.5 mg/kg/day, every other day (Mon., Weds., Fri.) till day 18) or vehicle control (twice/day for 18 consecutive days) all starting from one day after the immunization and all administered i.p. Then animals were monitored for body weight, signs of paralysis and death according to a 0-5 scale of scoring system as follows; 1=limp tail or waddling gait with tail tonicity; 2=waddling gait with limp tail (ataxia); 2.5=ataxia with partial limb paralysis; 3=full paralysis of one limb; 3.5=full paralysis of one limb with partial paralysis of second limb; 4=full paralysis of two limbs; 4.5=moribund; 5=death. Results are shown in FIG. 1A, FIG. 1B, and FIG. 1C. […] (p=0.04 by repeated measure analysis to assess the treatment effect. Proper polynomial transformation, with the spacing corresponding to the collection days, was applied to test the time effect). Statistically significant differences in diseases severity between the M1 and vehicle-treated groups, continued even after stopping compound administration and were observed until the end of the study (d25).

SSAO [2] = target: T1, SSAO; assay: In vitro inhibition of SSAO activity, radiolabeled benzylamine procedure (rat lung homogenate); assay type: biochemical
Method: SSAO activity was also measured as described (Lizcano J M. Et al. (1998) Biochem J. 331:69). Briefly, rat lung homogenates were prepared by chopping the freshly removed tissue into small pieces and washing them thoroughly in PBS. The tissue was then homogenized 1:10 (w/v) in 10 mM potassium phosphate buffer (pH 7.8) and centrifuged at 1000 g at 4° C. for 10 minutes; the supernatant was kept frozen until ready to use. SSAO activity in 100 ul of lung homogenate was determined radiochemically using 20 uM ^14C-benzylamine as substrate. The reaction was carried out at 37° C. in a final volume of 300 ul of 50 mM potassium phosphate buffer (pH 7.2) and stopped with 100 ul of 2 M citric acid. Radioactively labeled products were extracted into; toluene/ethyl acetate (1:1, v/v) containing 0.6% (w/v) 2,5-diphenyloxdazole (PPO) before liquid scintillation counting.

human MAO-B = target: T2, human MAO-B (Homo sapiens, UniProt P27338); assay: Inhibition of MAO-B activity, coupled colorimetric assay; assay type: biochemical; conditions: recombinant human MAO-B, benzylamine substrate
T2 construct: purchased BD Biosciences (MA, USA)
T2 sequence (P27338 1-520): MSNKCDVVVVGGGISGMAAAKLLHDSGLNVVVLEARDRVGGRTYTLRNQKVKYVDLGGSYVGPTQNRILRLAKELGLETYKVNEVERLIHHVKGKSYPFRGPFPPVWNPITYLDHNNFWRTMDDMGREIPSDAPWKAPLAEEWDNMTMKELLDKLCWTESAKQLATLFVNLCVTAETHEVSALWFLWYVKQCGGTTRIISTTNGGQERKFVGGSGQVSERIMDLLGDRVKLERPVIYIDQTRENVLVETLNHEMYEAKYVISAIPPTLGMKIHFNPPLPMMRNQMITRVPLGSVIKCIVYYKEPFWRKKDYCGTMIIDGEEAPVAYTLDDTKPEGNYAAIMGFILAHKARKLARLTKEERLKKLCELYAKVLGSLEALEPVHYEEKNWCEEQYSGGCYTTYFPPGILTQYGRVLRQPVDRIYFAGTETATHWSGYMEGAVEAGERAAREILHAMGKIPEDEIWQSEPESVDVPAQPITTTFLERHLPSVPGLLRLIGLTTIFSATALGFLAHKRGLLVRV
Method: (§1) The specificity of the different SSAO inhibitors was tested by determining their ability to inhibit MAO-A and MAO-B activities in vitro. Recombinant human MAO-A and human MAO-B enzymes were obtained from BD Biosciences (MA, USA). MAO activities were measured in a similar way as for SSAO except that no pre-incubation with inhibitor or substrate was performed. A pre-determined amount of inhibitor diluted in 0.2 M potassium phosphate buffer, pH 7.6, was added to each well, if required. The amount of inhibitor varied in each assay but was generally at a final concentration of between 50 nM and 1 mM. Controls lacked inhibitor. The following agents were then added to a final reaction volume of 200 μl in 0.2 M potassium phosphate buffer, pH 7.6: 0.04 mg/ml of MAO-A or 0.07 mg/ml MAO-B enzyme, 15 μl of 10 mM tyramine substrate (for MAO-A), or 15 μl 100 mM benzylamine substrate (for MAO-B), and 50 μl of freshly made chromogenic solution (as above). The plates were incubated for 60 min at 37° C. The increase in absorbance, reflecting MAO activity, was measured at 490 nm using microplate spectrophotometer (Power Wave 40, Bio-Tek Inst.). Inhibition was determined as percent inhibition compared to control after correcting for background absorbance and IC50 values, and was calculated using. GraphPad Prism software. […]

human MAO-A = target: T3, human MAO-A (Homo sapiens, UniProt P21397); assay: Inhibition of MAO-A activity, coupled colorimetric assay; assay type: biochemical; conditions: recombinant human MAO-A, tyramine substrate
T3 construct: purchased BD Biosciences (MA, USA)
T3 sequence (P21397 1-527): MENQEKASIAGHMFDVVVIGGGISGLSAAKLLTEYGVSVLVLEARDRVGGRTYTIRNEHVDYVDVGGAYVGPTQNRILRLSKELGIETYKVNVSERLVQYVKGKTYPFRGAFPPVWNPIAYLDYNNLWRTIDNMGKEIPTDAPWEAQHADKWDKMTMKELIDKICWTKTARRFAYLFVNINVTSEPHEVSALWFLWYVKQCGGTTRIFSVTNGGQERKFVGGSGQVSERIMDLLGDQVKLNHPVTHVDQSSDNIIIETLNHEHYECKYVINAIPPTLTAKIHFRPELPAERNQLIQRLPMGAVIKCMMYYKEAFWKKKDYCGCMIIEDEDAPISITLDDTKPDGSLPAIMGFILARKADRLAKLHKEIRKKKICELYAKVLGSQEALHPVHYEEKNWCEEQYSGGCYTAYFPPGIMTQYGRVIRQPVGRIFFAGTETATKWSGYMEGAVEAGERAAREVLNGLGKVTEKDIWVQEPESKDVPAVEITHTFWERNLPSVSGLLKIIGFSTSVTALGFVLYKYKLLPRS
Method: as §1

[3] = Table I, compounds of formula X
[4] = Table II, compounds of formula III

IC50 (SSAO [2]; [3]): 0.033 µM | IC50 (human MAO-B): > 1300 µM | IC50 (human MAO-A): > 1300 µM | melting point: 189.5 to 190 °C
SMILES: NCC(=O)NCc1cc(F)cc(C(F)(F)F)c1 [compound 1383]

inhibition at 10 µM (SSAO [2]; Table II): 56%
SMILES: Fc1ccc(OCC2=CCCNC2)cc1 [compound 1395]

IC50 (SSAO [2]; [4]): 2.1 µM
SMILES: COc1ccc(CCC2=CCNC2)cc1 [compound 1396]

inhibition at 9 µM (SSAO [2]; Table II): 54%
SMILES: COc1ccc(OCC2=CCCNC2)cc1OC [compound 1397]

inhibition at 10 µM (SSAO [2]; Table II): 61%
SMILES: Fc1cccc(OCC2=CCCNC2)c1 [compound 1398]

inhibition at 10 µM (SSAO [2]; Table II): 74%
SMILES: COc1cccc(OCC2=CCCNC2)c1 [compound 1401]

IC50 (SSAO [2]; [4]): 1.83 µM
SMILES: Fc1ccc(CCC2=CCNC2)cc1 [compound 1402]

inhibition at 10 µM (SSAO [2]; Table II): 63%
SMILES: COc1ccc(OCC2=CCCNC2)cc1 [compound 1404]

inhibition at 9 µM (SSAO [2]; Table II): 50%
SMILES: COc1ccc(CCC2=CCNC2)cc1OC [compound 1427]

More lines, now with the values behind:

SMILES: C#CC(N)CCCc1ccc(OC)cc1 (stereo not shown) (as salt: hydrochloride)
melting point: 175 °C (dec.)

SMILES: NCC(=O)NCc1ccc(F)cc1 (as salt: hydrochloride) [LJP 1334, 2-amino-N-(4-fluorobenzyl)acetamide]
melting point: 114 to 115 °C

SMILES: NCC(=O)NCc1cc(F)cc(C(F)(F)F)c1 (as salt: trifluoroacetate) [LJP 1383, 2-amino-N-(3-fluoro-5-trifluoromethylbenzyl)acetamide trifluoroacetate]
melting point: 189.5 to 190.5 °C

SMILES: NC/C=C(/Cc1ccccc1)C(F)(F)F [Example 3, 3-benzyl-4,4,4-trifluoro-but-2-enylamine]
melting point: 170 °C (dec.)

SMILES: COc1ccc(CCCC(N)c2ccc(F)c(F)c2)cc1 (stereo not shown) [Example 3D, 1-(3,4-difluorophenyl)-4-(4-methoxyphenyl)-butylamine]
melting point: 200 °C (dec.)

SMILES: C=CC(N)CCCc1ccccc1 (stereo not shown) [Example 3E, 1-(3-phenyl-propyl)-allylamine]
melting point: 143 to 144 °C

SMILES: NCC(=O)NCc1cccnc1 [LJP 1356, 2-amino-N-pyridin-3-ylmethylacetamide]
melting point: 87 to 88 °C

SMILES: COc1cccc(CCC2=CCNC2)c1.Cl [LJP 1368, 3-[2-(3-methoxyphenyl)ethyl]-3-pyrroline hydrochloride]
reversibility of inhibition of SSAO enzyme activity (SSAO [1]): irreversible

SMILES: CN(Cc1cnc2nc(N)nc(N)c2n1)c1ccc(C(=O)N[C@@H](CCC(=O)O)C(=O)O)cc1 [MTX, methotrexate]
EAE development after stopping treatment (C57BL/6 mice): a rise in disease incidence and severity was observed right after stopping the MTX treatment

SMILES: NCC(=O)NCc1ccc(F)cc1 [compound 1334]
IC50 (SSAO [2]; [3]): 2.4 µM

SMILES: NCC(=O)NCc1cccnc1 [compound 1356]
IC50 (SSAO [2]; [3]): 0.7 µM

SMILES: Fc1cccc(CCC2=CCNC2)c1 [compound 1367]
IC50 (SSAO [2]; [4]): 2.4 µM

SMILES: COc1cccc(CCC2=CCNC2)c1 [compound 1368]
IC50 (SSAO [2]; [4]): 0.5 µM | IC50 (human MAO-B): > 1000 µM | IC50 (human MAO-A): > 1000 µM

SMILES: NC/C(=C/F)CCc1ccc(F)cc1 [mofegiline]
EAE development after stopping treatment (C57BL/6 mice): continuously observed for at least one more week after the last treatment | disease (clinical) severity, EAE development (C57BL/6 mice; dosing period d0-18, i.p., mofegiline 10 mg/kg/dose twice daily, MTX 2.5 mg/kg/day every other day): statistically significant reduction of disease seventy | disease incidence (mice affected) (C57BL/6 mice; dosing period up to day 18, 10 mg/kg/dose i.p. twice daily): 50% | body weight (C57BL/6 mice; dosing period, 10 mg/kg/dose i.p. twice daily): prevented body weight loss
